This note sets out measurements from patent publication US10450378B2, “Cytotoxic and anti-mitotic compounds, and methods of using the same” (priority 2014, dated 2019).

Where two headings read alike, the source gives them in different places. A value given as a limit tells only on which side of the number the result lay.

What all share (test): Cellular cytotoxicity of compounds of Formula I, Example 3.1
Common to all, as to assay type: cell-based

Test [1] deals with Human T-cell leukemia cell line Jurkat. Conditions: Homo sapiens, Jurkat, read-out: EC50 (nM) Jurkat. The procedure: (§1) Compounds were tested on one or more of Human T-cell leukemia cell line Jurkat (ATCC: TIB-152); Human breast cancer cell lines HCC1954 (ATCC: CRL-2338) and JIMT-1 (DSMZ: ACC 589); Human Pancreatic cell line BxPC-3 (ATCC: CRL.1687), Human ovarian adenocarcinoma cell line SK-OV-3 (ATCC: HTB-77) and Human gastric carcinoma cell line NCI-N87 (ATCC: CRL. 5822); to assess their cytotoxicity.
(§2) Briefly, cells were obtained from commercial sources and cultured as described in the product sheet provided. Cells were removed from their culture vessels and the resulting cell suspension was counted using a ViCell (Beckman Coulter), then seeded at 25,000 cells/mL (2,500 cells/well) in Costar 3904 black walled, flat bottomed 96-well plates (cells were seeded in the inner 60 wells of 96-well TC plates, and outer edge wells filled with water). Adherent cell lines were incubated for one night at 37° C./5% CO2 atmosphere to allow the cells to attach to the microtiter plate surface, while suspension (Jurkat) cells were plated immediately before use. Cytotoxins were dissolved and serially diluted in dimethyl sulfoxide and then the solutions were added to complete growth medium at five-times the desired maximum final concentration. The cytotoxins were then titrated in growth medium, normally 1:3, over eight steps. A control with no test article present (growth medium alone) was included on each microtiter plate in sextuplicate. The prepared toxin titrations were added (25 μL/well) in triplicate to each cell line assayed. The cells and titrations were incubated at 37° C./5% CO2 for three nights (Jurkat) and five nights (all other cell lines). After the incubation, cell viability was measured using CellTiter-Glo® by adding 30 μL of prepared CellTiter-Glo® reagent to each assay well. The mixtures were incubated for at least twenty minutes in the dark prior to measuring emitted luminescence using a microplate luminometer (500 ms integration time). The collected relative luminescence units (RLU) were converted to % cytotoxicity using the growth medium alone control mentioned above (% Cytotoxicity=1-[well RLU/average medium alone control RLU]×100%).

For test [2], the system named is Human Pancreatic cell line BxPC-3. The conditions noted are these: five nights, CellTiter-Glo. The procedure:
as §1, §2
Background: Cellular ATP, detected with luciferase, serves as a proxy for viable cell number.

Test [3] concerns Human gastric carcinoma cell line NCI-N87. The conditions noted are these: five nights, CellTiter-Glo. The procedure:
as §1, §2

On to `CC[C@H](C)[C@@H]([C@@H](CC(=O)N1CCC[C@H]1[C@H](OC)[C@@H](C)C(=O)NS(=O)(=O)Cc1ccc(CNC(=O)C(F)(F)F)cc1)OC)N(C)C(=O)[C@@H](NC(=O)[C@H](C(C)C)N(C)C)C(C)C` [Compound 25, (S)-2-((S)-2-(Dimethylamino)-3-methylbutanamido)-N-((3R,4S,5S)-3-methoxy-1-((S)-2-((1R,2R)-1-methoxy-2-methyl-3-oxo-3-(((4-((2,2,2-trifluoroacetamido)methyl)phenyl)methyl)sulfonamido)propyl)pyrrolidin-1-yl)-5-methyl-1-oxoheptan-4-yl)-N,3-dimethylbutanamide], for which the EC50 in test [1] (three nights, CellTiter-Glo) is 34.3 nM; in test [2] it was over 100 nM; in test [3], over 100 nM.

Regarding `CC[C@H](C)[C@@H]([C@@H](CC(=O)N1CCC[C@H]1[C@H](OC)[C@@H](C)C(=O)N[C@@H](Cc1ccccc1)C(=O)NS(=O)(=O)Cc1ccc(CNC(=O)C(F)(F)F)cc1)OC)N(C)C(=O)[C@@H](NC(=O)[C@H](C(C)C)N(C)C)C(C)C` [Compound 27, (S)-2-((S)-2-(Dimethylamino)-3-methylbutanamido)-N-((3R,4S,5S)-3-methoxy-1-((S)-2-((1R,2R)-1-methoxy-2-methyl-3-oxo-3-(((S)-1-oxo-3-phenyl-1-(((4-((2,2,2-trifluoroacetamido)methyl)phenyl)methyl)sulfonamido)propan-2-yl)amino)propyl)pyrrolidin-1-yl)-5-methyl-1-oxoheptan-4-yl)-N,3-dimethylbutanamide], the EC50 in test [1] was found to be 24.2 nM; in test [2], 19 nM; in test [3] it was 17.4 nM.

Regarding `CC[C@H](C)[C@@H]([C@@H](CC(=O)N1CCC[C@H]1[C@H](OC)[C@@H](C)C(=O)N[C@@H](Cc1ccccc1)C(=O)NS(=O)(=O)Cc1ccc(CN)cc1)OC)N(C)C(=O)[C@@H](NC(=O)[C@H](C(C)C)N(C)C)C(C)C` [Compound 28, (S)-N-((3R,4S,5S)-1-((S)-2-((1R,2R)-3-(((S)-1-(((4-(Aminomethyl)phenyl)methyl)sulfonamido)-1-oxo-3-phenylpropan-2-yl)amino)-1-methoxy-2-methyl-3-oxopropyl)pyrrolidin-1-yl)-3-methoxy-5-methyl-1-oxoheptan-4-yl)-2-((S)-2-(dimethylamino)-3-methylbutanamido)-N,3-dimethylbutanamide], the EC50 in test [1] (three nights, CellTiter-Glo) was about 100 nM; in test [2], over 100 nM; in test [3], over 100 nM.

`CC[C@H](C)[C@@H]([C@@H](CC(=O)N1CCC[C@H]1[C@H](OC)[C@@H](C)C(=O)NS(=O)(=O)c1ccc(C(=O)OC)cc1)OC)N(C)C(=O)[C@@H](NC(=O)[C@H](C(C)C)N(C)C)C(C)C` [Compound 34, Methyl 4-(N-((2R,3R)-3-((S)-1-((3R,4S,5S)-4-((S)-2-((S)-2-(Dimethylamino)-3-methylbutanamido)-N,3-dimethylbutanamido)-3-methoxy-5-methylheptanoyl)pyrrolidin-2-yl)-3-methoxy-2-methylpropanoyl)sulfamoyl)benzoate]: the 50% effective concentration (EC50) in test [1] (three nights, CellTiter-Glo) is over 100 nM; in test [2] it was over 300 nM; in test [3], over 300 nM.

Usually EC50 stands for the midpoint of the concentration-response curve.
